Marks after values point to notes of the source that are not given here.
Legend:
[1] = system: hECE cells (Human Ectocervical-Vaginal Epithelial Cells); experiment: Determinations of extracellular pH (pHo) in luminal and contra-luminal solutions of hECE cells cultured on filters; assay type: cell-based; settings: for effect on estrogen-induced acidification of the luminal pHo: 10 nM 17β-estradiol, 30 min pre-treatment, bafilomycin A1 1 μM, ouabain 1 μM (contra-luminal), omeprazol 100 μM, FIG. 10; for effect on luminal pHo (specificity of estrogen effect): hormone at 10 nM, FIG. 8A; for effect of co-treatment on estrogen-induced decrease in luminal pHo: hECE cells in steroid-free medium + 10 nM 17β-estradiol; for effect of co-treatment on estrogen-induced decrease in luminal pHo / effect on contra-luminal pHo: tamoxifen 10 μM; for effect of co-treatment on estrogen-induced decrease in luminal pHo / effect on contra-luminal pHo / effect on luminal pHo, alone: ICI-182780 10 μM; for effect of co-treatment on estrogen-induced decrease in luminal pHo / effect on luminal pHo, alone: progesterone 1 μM; for effect on contra-luminal pHo: progesterone 1 μM (not shown); for effect on luminal pHo, alone: without 17β-estradiol
Protocol: Referring to FIG. 4A, hECE cells or Human Endocervical Cells were plated on Anocell filters (Anocel™-10, Oxon, UK, obtained through Sigma Chemicals, St. Louis, Mo.), which are ceramic-base filters, pore size of 0.02 μm width, 50 μm depth, and surface area of 0.6 cm^2. Filters 300 and 302 were coated with 4 μg/cm^2 collagen type IV and incubated at 37° C. overnight. The remaining collagen solution was aspirated and the filter was dried at 37° C. Before plating, filters 300 were rinsed 3 times with Hanks' Balanced Salt Solution. Cells were plated either on the upper surface 302 of one filter 300 (for determinations of luminal pHo) or on the bottom surface 304 of the other filter 300 (for determinations of the contra-luminal pHo) at 3·10^5 cells/cm^2. By plating at this relatively high density the cultures became confluent within 12 hours after plating.
Plates containing the filters were placed in a tissue culture incubator (37° C.), and pHo changes in the luminal and contra-luminal solutions were determined using AMANI-1000 microcombination pH electrodes 306 (Harvard Apparatus, Holliston, Mass., obtained through Genomics Solutions, Ann Harbor, Mich.). The AMANI-1000 pH sensor (stored in pH 7.0) is based on metal-metal oxide pH measurements and the pH sensitive layer is immobilized on plastic. The reference electrode employs an Ag/AgCl in 3.4 M KCl reference electrode, and the reference electrode junction is leak-free ensuring no leaks of KCl out of the reference electrode. The design of the pH electrodes 306 enabled their use for the purpose of the present experiments: tip diameter of 1 mm, depth of immersion 1 mm, and response time of less than 5 sec.
Electrodes 306 attached to a stand were held stable with the tip immersed in the solution within the upper compartment of the filter to a depth of about 2 mm avoiding direct contact between the electrode tip and the cultured cells. The electrodes were connected directly to a pH meter 310 (e.g., Accumet pH meter 910) (Fisher Scientific, Suwanee Ga.). After stabilization, the luminal and contraluminal solutions were gently aspirated using glass pipette, and replaced with fresh warmed (37° C.) Basic Salt Solution containing (in mM) NaCl (140), KCl (5), MgCl2 (1), CaCl2 (1), glucose (10), and 0.1% bovine serum albumin, pH 7.4. The volumes in the luminal and contraluminal compartments were 150 μl and 500 μl, respectively. Determinations of changes in pHo were made at time 0, and at 5 min intervals thereafter for up to 30 min.
To remove intracellular estrogens cells were grown in steroid-free medium as described. This procedure involved shifting cells on filters for three days prior to pHo assays to a medium composed of phenol-red-deficient (DMEM)/Ham's F12 or (Sigma Chemicals, St. Louis, Mo.) containing 8% heat inactivated fetal bovine serum that was previously treated with charcoal to remove steroids. Preparation of charcoal-treated serum was described; briefly, dextran-coated charcoal (Sigma Chemicals, St. Louis, Mo.) was dissolved at 8% in 0.15 M NaCl, autoclaved, mixed by stirring, spun and the pellet was resuspended as 1 gm/1.25 ml in H2O. Fetal bovine serum (Hyclone, Logan, Utah) was mixed with the activated charcoal-dextran at 20:1 (Vol:Vol) and incubated for 45 min at 55° C. At the completion of incubation the mixture was spun twice at 800 g for 20 min and the supernatant (serum) was decanted and collected. For experiments, cells were shifted to steroid-free medium for 3 days; alternatively, cells were shifted to the steroid-free medium for 24 hrs and treated with 17β-estradiol for two additional days.

hECE cells = experiment: Cell-vitality staining (MTT assay); assay type: cell-based, human; settings: for hECE cell vitality (MTT staining normalized to OD570 of control unperturbed cells), Baseline / hECE cell vitality (MTT staining normalized to OD570 of control unperturbed cells), 30 min pHo: means ±SD; for hECE cell vitality (MTT staining normalized to OD570 of control unperturbed cells), 30 min pHo: after 30 min pHo measurement
Protocol: Cell-vitality staining was done using the 3-[4,5-dimethylthiazol-2-yl]-2,5-diphenyl tetrazolium bromide (MTT) assay. MTT serves as a substrate for mitochondrial dehydrogenases, and only viable functional mitochondria are capable of cleaving MTT to generate the colored product formazan. MTT solution was prepared by dissolving MTT at a concentration of 5 mg/ml in phosphate-buffered saline (PBS) composed of (mM) NaCl (137), KCl (2.68), Na2HPO4 (10), KH2PO4 (1.76), pH 7.4, and filtering the solution through Millipore filter. Following treatments/assays, cells on filters were washed with fresh and warm (37° C.) PBS and incubated for 60 min at 37° C. in MTT solution. At the completion of incubation, cells were washed with PBS, and solubilized in isopropanol containing 0.1 M HCl plus 1% Triton X-100. Lysates were mixed by pipetting to dissolve the reduced MTT crystals (during which time the colorless solution turned purple) and were spinned at 10,000 g for 5 min. The solubilized formazan was measured by determining absorption at 570 nm. Background absorbance at 690 nm was subtracted for each sample, and values were normalized to OD570 (optic density) of control unperturbed cells.

[2] = Steroid-Free Medium + 10 nM 17β-Estradiol + substance at the concentration given
[3] = Steroid-Free Medium + substance, 3 to 4 repeats
[4] = hECE cells in steroid-free medium
[5] = hECE cells, steroid-free medium + estradiol, 1 μM for 30 min added to the luminal solution

| SMILES | effect on estrogen-induced acidification of the luminal pHo ([1]; hECE cells) | hECE cell vitality (MTT staining normalized to OD570 of control unperturbed cells), Baseline (hECE cells; [2]) | hECE cell vitality (MTT staining normalized to OD570 of control unperturbed cells), 30 min pHo (hECE cells; [2]) | hECE cell vitality (MTT staining normalized to OD570 of control unperturbed cells), Baseline (hECE cells; [3]) | hECE cell vitality (MTT staining normalized to OD570 of control unperturbed cells), 30 min pHo (hECE cells; [3]) | effect of co-treatment on estrogen-induced decrease in luminal pHo [1] | effect on contra-luminal pHo ([1]; hECE cells) | other results |
| --- | --- | --- | --- | --- | --- | --- | --- | --- |
| O=C(O)CN(CCOCCOCCN(CC(=O)O)CC(=O)O)CC(=O)O [EGTA] | – | – | – | – | – | – | – | effect on contra-luminal solution ([1]; hECE cells, 1.2 mM EGTA plus 1.2 mM CdCl2 in luminal and contra-luminal solutions): acidification of the contra-luminal solution; effect on luminal acidification ([1]; hECE cells, 1.2 mM EGTA plus 1.2 mM CdCl2 in luminal and contra-luminal solutions (extracellular calcium <0.1 mM)): blocked the luminal acidification; luminal pHo and contra-luminal pHo ([1]; hECE cells, following treatment with 1.2 mM EGTA (plus 1.2 mM CdCl2)): ~7.2 |
| C[C@@H]1O[C@@H](O[C@H]2C[C@@H](O)[C@]3(CO)[C@H]4[C@H](O)C[C@]5(C)[C@@H](C6=CC(=O)OC6)CC[C@]5(O)[C@@H]4CC[C@]3(O)C2)[C@H](O)[C@H](O)[C@H]1O [ouabain] | attenuated mildly estradiol effect | 62 ± 4^a,b % | 74 ± 9^b % | 71 ± 8^a,b % | 69 ± 9^b % | – | – | effect on luminal pHo in cells grown in steroid-free medium ([1]; hECE cells, no estradiol, ouabain 1 μM, 30 min, added to contra-luminal solution): mild alkalinization of luminal pHo; effect on MTT cleavage (cell viability) (hECE cells; hECE cells, treatments of Table 1): decreased MTT incorporation and staining |
| C[C@]12CC[C@H]3[C@@H](CCC4=CC(=O)CC[C@@]43C)[C@@H]1CC[C@@H]2O [testosterone] | – | – | – | – | – | – | – | effect on luminal pHo (specificity of estrogen effect) [1, 4]: no effect |
| CC/C(=C(\c1ccccc1)c1ccc(OCCN(C)C)cc1)c1ccccc1 [tamoxifen] | – | 95 ± 3% | 96 ± 4% | 93 ± 4% | 95 ± 4% | no significant effect | Neither tamoxifen ICI-182780 or progesterone had any appreciable effect | luminal pHo ([1]; hECE cells in steroid-free medium, tamoxifen 10 μM alone, 24 hrs, decreased from 7.24±0.02, p<0.01): 7.15±0.02 |
| [Cl][Cd][Cl] [CdCl2] | – | 95 ± 2% | 95 ± 3% | 94 ± 2% | 95 ± 9% | – | – | – |
| C[C@]12CC[C@@H]3c4ccc(O)cc4C[C@@H](CCCCCCCCC[S+]([O-])CCCC(F)(F)C(F)(F)F)[C@H]3[C@@H]1CC[C@@H]2O (some centres unmarked) [ICI-182780] | – | 89 ± 9% | 93 ± 6% | 95 ± 8% | 95 ± 3% | blocked | Neither tamoxifen ICI-182780 or progesterone had any appreciable effect | effect on luminal pHo, alone [1, 4]: no effect |
| COc1ccc2[nH]c([S+]([O-])Cc3ncc(C)c(OC)c3C)nc2c1 (centres unmarked) [omeprazol] | no effect | 91 ± 6% | 95 ± 4% | 92 ± 5% | 95 ± 4% | – | – | – |
| CC/C(=C(/CC)c1ccc(O)cc1)c1ccc(O)cc1 [diethylstilbestrol] | – | – | – | – | – | – | – | effect on luminal pHo (specificity of estrogen effect) [1, 4]: could mimic 17β-estradiol decrease in luminal pHo |
| CC(=O)[C@H]1CC[C@H]2[C@@H]3CCC4=CC(=O)CC[C@]4(C)[C@H]3CC[C@]12C [progesterone] | – | 91 ± 6% | 95 ± 4% | 95 ± 5% | 95 ± 4% | no significant effect | Neither tamoxifen ICI-182780 or progesterone had any appreciable effect | effect on luminal pHo, alone [1, 4]: no effect |
| CO/C1=C\C(C)=C\[C@@H](C)[C@@H](O)[C@@H](C)C/C(C)=C/C=C/[C@H](OC)[C@@H]([C@@H](C)[C@@H](O)[C@H](C)[C@@]2(O)C[C@@H](O)[C@H](C)[C@@H](C(C)C)O2)OC1=O [bafilomycin A1] | blocked | 93 ± 7% | 92 ± 5% | 94 ± 3% | 95 ± 4% | – | – | effect on the contra-luminal or luminal pHo ([1]; hECE cells, steroid-free medium + estradiol, 1 μM for 30 min added to the contra-luminal solution): no effect; effect on luminal pHo [1, 5]: significantly blocked the estrogen-decrease in luminal pHo; effect on the contra-luminal pHo [1, 5]: little effect |

— patent US20080071190A1, “Timing of Ovulation Based on Vaginal Ph” (priority 2004, published 2008)
